The assay has as its target human anti-Rha IgM. The assay is described as follows: Competitive ELISA: inhibition of human anti-Rha IgM binding to PAA-Rha coated wells. The conditions noted are these: indirect competitive ELISA; human serum 20 %; PAA-Rha coating 5 μg mL^−1; 1 h at 37 °C; Alexa-Fluor488 goat anti-human IgM (1:400), fluorescence Ex 488/Em 530 nm; average of three independent experiments; read-out: IC50, inhibition of binding of human anti-Rha IgM to Rha coated wells (monovalent control). Here is the method: We next performed enzyme‐linked immunosorbent assay (ELISA)‐type studies to evaluate the ability of glycoconjugates 3 and 6 to bind natural Abs. Microtiter plates were first coated with a commercial Rha‐functionalized poly[N‐(2‐hydroxyethyl)acrylamide] polymer (PAA‐Rha) and incubated with human serum, a source of anti‐Rha antibodies, then fluorescent goat anti‐human IgM and IgG. […] This observation is in good agreement with previous studies showing strong ratio variations of circulating antibodies in human sera.15, 16 A competitive assay was next performed with glycoconjugates 3 and 6 as inhibitors and Rha as the monovalent control (Figure 1). […]
The ability of the ABMs to recruit anti‐Rha antibodies present in human serum (HS) was evaluated by an indirect competitive ELISA binding study. […] The fluorescence has been measured by using an Omega BMG LABTECH plate reader (Ex: 488 nm/ Em: 530 nm). The percentage of binding inhibition of the human anti‐Rha IgM antibody to the rhamnose‐coated microplate was calculated by using the formula: inhibition (%)=((F max−F)/F max)×100. F max corresponds to the mean value of the higher fluorescence limit reached in the dilution series of each rhamnose conjugate whereas F is the fluorescence red for each concentration of the compound tested. The fluorescence values used in this formula were an average of triplicate experiments. […]

Each structure is given as a SMILES string.

These results are taken from PMC6916168, “Multifunctional Glycoconjugates for Recruiting Natural Antibodies against Cancer Cells” (Chemistry (Weinheim an Der Bergstrasse, Germany), 2019).

For orientation: IC50 means the concentration that gives 50% inhibition. With `C[C@H](O)[C@H](O)[C@@H](O)[C@@H](O)C=O` [Rha, L‐rhamnose], the IC50 worked out at 1200 µM.
